Data taken from patent US9695219B2, “Polypeptide having antibacterial activity and angiogenesis-inducing activity and wound-healing drug containing said polypeptide” (priority 2009, dated 2017).
≈ marks a conversion by molar mass, not a printed value.

What was measured:
Assay type in all cases: cell-based
Trichophyton rubrum = conditions: 37° C. for 20 hours; tested twice, first/second value where not matched
Method: (§1) Further, with respect to not only the above-described strains but also various other strains, the “minimum inhibitory concentration (MIC)” was measured as follows. MIC is the lowest concentration of an agent that may inhibit the growth of a bacterium. MIC is used as a parameter for the efficacy of an antibacterial agent, for the strength of bacterial sensitivity, or the like. The bacteria can grow (proliferate) when the concentration is not higher than MIC, and cannot grow when the concentration is higher than MIC. Its measurement is carried out according to a method defined as a standard method by Japanese Society of Chemotherapy or CLINICAL AND LABORATORY […] (CLSI), but, in this Example, its measurement was carried out by a broth microdilution method in accordance with “M100-S17/M7-A7” (Performance Standards for Antimicrobial Susceptibility Testing; Seventeenth Informational Supplement, Vol. 27 No. 1) published by CLSI on January, 2007. That is, sensitivity test of agents was carried out using a microtiter plate or test tubes.
(§2) The bacteria were cultured in liquid media for 4 to 6 hours, and thereafter absorbances at A600 were measured. Bacterial suspensions were diluted with Mueller-Hinton broth (MHB) according to McFarland #0.5. Each strain was added so as to attain about 10^5 CFU/ml (final concentration). Each peptide was prepared to an optional concentration, and the solutions were serially diluted from the concentration. The polypeptide at each concentration stage was added to a microplate or test tubes, and the bacterial suspension was added thereto. Chloramphenicol, amphotericin B, ciprofloxacin, meropenem (MEPM), ciprofloxacin (CPFX), tobramycin (TOB) and oxacillin (OX) were used as positive controls. The plate was incubated at 37° C. for 20 hours, and the lowest concentration where bacterial growth was inhibited was regarded as the minimum inhibitory concentration.

[1] = test system: Trichophyton mentagrophytes; conditions: 37° C. for 20 hours; tested twice, first/second value where not matched
Method: as §1, §2

Fusarium solani = conditions: 37° C. for 20 hours; tested twice, first/second value where not matched
Method: as §1, §2

Candida krusei = conditions: 37° C. for 20 hours; tested twice, first/second value where not matched
Method: as §1, §2

[2] = test system: Penicillium glabrum (Penicillium frequentans); conditions: 37° C. for 20 hours; tested twice, first/second value where not matched
Method: as §1, §2

Alternaria alternata = conditions: 37° C. for 20 hours; tested twice, first/second value where not matched
Method: as §1, §2

Acinetobacter baumanni = conditions: 37° C. for 20 hours; tested twice, first/second value where not matched
Method: as §1, §2

Salmonella enteritidis = assay: microbe, parasite or virus in culture; conditions: Salmonella enterica, 37° C. for 20 hours, tested twice, first/second value where not matched
Method: as §1, §2

Enterococcus faecalis = assay: microbe, parasite or virus in culture; conditions: 37° C. for 20 hours, tested twice, first/second value where not matched
Method: as §1, §2

Fusobacterium nucleatum = assay: microbe, parasite or virus in culture; conditions: Fusobacterium nucleatum; 37° C. for 20 hours; tested twice, first/second value where not matched
Method: as §1, §2

Micrococcus luteus = assay: microbe, parasite or virus in culture; conditions: 37° C. for 20 hours, tested twice, first/second value where not matched
Method: as §1, §2

Bacteroides fragilis = assay: microbe, parasite or virus in culture; conditions: Bacteroides fragilis; 37° C. for 20 hours; tested twice, first/second value where not matched
Method: as §1, §2

Clostridium ramosum = assay: microbe, parasite or virus in culture; conditions: Thomasclavelia ramosa; 37° C. for 20 hours; tested twice, first/second value where not matched
Method: as §1, §2

Streptococcus pyogenes = assay: microbe, parasite or virus in culture; conditions: 37° C. for 20 hours, tested twice, first/second value where not matched
Method: as §1, §2

Salmonella typhimurium = assay: microbe, parasite or virus in culture; conditions: Salmonella enterica, TYPHIMURIUM; 37° C. for 20 hours; tested twice, first/second value where not matched
Method: as §1, §2

Bacillus subtilis = assay: microbe, parasite or virus in culture; conditions: 37° C. for 20 hours, tested twice, first/second value where not matched
Method: as §1, §2

Row | SMILES | MIC, Trichophyton rubrum (Trichophyton rubrum) [µg/mL] | MIC, Trichophyton mentagrophytes [1] [µg/mL] | MIC, Fusarium solani (Fusarium solani) [µg/mL] | MIC, Candida krusei (Candida krusei) [µg/mL] | MIC, Penicillium glabrum (Penicillium frequentans) [2] [µg/mL] | MIC, Alternaria alternata (Alternaria alternata) [µg/mL] | MIC, Acinetobacter baumanni (Acinetobacter baumanni) | MIC (Salmonella enteritidis) [µg/mL] | MIC (Enterococcus faecalis) [µg/mL] | MIC (Fusobacterium nucleatum) [µg/mL] | MIC (Micrococcus luteus) [µg/mL] | MIC (Bacteroides fragilis) [µg/mL] | MIC (Clostridium ramosum) [µg/mL] | MIC (Streptococcus pyogenes) [µg/mL] | MIC (Salmonella typhimurium) [µg/mL] | MIC (Bacillus subtilis) [µg/mL]
1 | C[C@@H]1[C@H](O)[C@@H](C)/C=C/C=C/C=C/C=C/C=C/C=C/C=C/[C@H](O[C@@H]2O[C@H](C)[C@@H](O)[C@H](N)[C@@H]2O)C[C@@H]2O[C@](O)(C[C@@H](O)C[C@@H](O)[C@H](O)CC[C@@H](O)C[C@@H](O)CC(=O)O[C@H]1C)C[C@H](O)[C@H]2C(=O)O [Amphotericin B, amphotericin B] | 0.25 (≈ 0.271 µM) | 0.125 (≈ 0.135 µM) | 1 (≈ 1.08 µM) | 2 (≈ 2.16 µM) | 0.125 (≈ 0.135 µM) | 1 (≈ 1.08 µM) |  |  |  |  |  |  |  |  |  | 
2 | O=C(N[C@H](CO)[C@H](O)c1ccc([N+](=O)[O-])cc1)C(Cl)Cl [Chloramphenicol] |  |  |  |  |  |  | 16/32 | 4 (≈ 12.4 µM) | 4 (≈ 12.4 µM) | 0.25 (≈ 0.774 µM) | 1 (≈ 3.09 µM) | 1 (≈ 3.09 µM) | 4 (≈ 12.4 µM) | 2 (≈ 6.19 µM) | 4 (≈ 12.4 µM) | 4 (≈ 12.4 µM)
